Experiments:
SARS-CoV-2 = assay: Viral plaque reduction assay; assay type: cell-based; settings: SARS-CoV-2-infected Vero E6 cells, m.o.i. 0.01, HP520-2, 72 hours, versus pathological control group
[1] = system: Envelope (E) gene of SARS-CoV-2; assay: Quantitative determination of viral gene expression (real-time PCR of E gene); assay type: cell-based, severe acute respiratory syndrome coronavirus 2; settings: Vero E6 cells pretreated at 15.625 nM and 62.5 nM (experimental groups 2 to 3), m.o.i. 0.01, versus pathological control group
HcoV-229E = assay: MTT cell viability assay of HcoV-229E-infected Vero E6 cells; assay type: cell-based, human coronavirus 229E
Protocol: Vero E6 cells were divided into 5 groups, including one normal control group, one pathological control group, and three experimental groups (i.e., experimental groups 1 to 3). Each group of the Vero E6 cells was incubated in a respective well of a 96-well culture plate containing 100 μL of E2 medium at 2×10^4 cells/well, followed by cultivation in an incubator (37° C., 5% CO2) for 24 hours. Afterwards, the culture medium in each well was removed, and the cells of the experimental groups 1 to 3 were pretreated with 8-benzoyl-4-methyl-9-phenyl-furo[2,3-h]chromen-2-one (i.e., HP520-2) (Cat. No. STL-513320, Vitas-M Laboratory) respectively at concentrations of 20 nM, 40 nM, and 80 nM, followed by adding 150 μL of the HcoV-229E solution prepared in section 2 of General Experimental Materials. […]
Each group was cultivated in an incubator (37° C., 5% CO2) for 96 hours. […] After cultivation in an incubator (37° C., 5% CO2) for 2 hours, the respective resultant cell culture was added with 150 μL of dimethyl sulfoxide (DMSO), followed by subjecting the mixture thus obtained to determination of absorbance at a wavelength of 590 nm (OD590) by an ELISA reader.
The cell viability rate (%) was calculated using the following Equation (I): […]

Cc1cc(=O)oc2c1ccc1oc(C(=O)c3ccccc3)c(-c3ccccc3)c12 [HP520-2, 8-benzoyl-4-methyl-9-phenyl-furo[2,3-h]chromen-2-one]
number of viral plaques (SARS-CoV-2): lower than that determined in the pathological control group | relative RNA expression level of E gene of SARS-CoV-2 [1]: significantly lower than that of the pathological control group | EC50 (HcoV-229E; Human coronavirus 229E, Vero C1008, Vero E6 cells, HcoV-229E, 96 hours, MTT, n=3, mean±SD): 39 ± 15 nM | cell viability rate (HcoV-229E; Vero E6 cells pretreated at 20 nM, 40 nM, 80 nM, versus pathological control group, FIG. 1): significantly higher than that determined in the pathological control group
